Reference: the NIST ThermoML archive (doi:10.1016/j.tca.2004.11.001)
Numbers after ± are expanded uncertainties.

Assay: molar heat capacity at constant pressure; xn = mol fraction of the nth substance listed
Settings: 101.33 kPa, Liquid

CCCCCCOCCOCCOCCOCCOCCO [2-(hexyloxytetraethoxy)ethanol] + O
molar heat capacity at constant pressure [J/K/mol]
Settings | 283 K | 288 K | 298 K | 308 K | 318 K | 328 K | 338 K
x1 = 0.00036 | 75.88 ± 0.29 | 75.76 ± 0.29 | 75.66 ± 0.29 | 75.64 ± 0.29 | 75.68 ± 0.29 | 75.77 ± 0.29 | 75.85 ± 0.29
x1 = 0.00072 | 76.25 ± 0.3 | 76.13 ± 0.3 | 76.04 ± 0.3 | 76.03 ± 0.29 | 76.07 ± 0.3 | 76.14 ± 0.3 | 76.23 ± 0.3
x1 = 0.00106 | 76.6 ± 0.3 | 76.5 ± 0.3 | 76.43 ± 0.3 | 76.42 ± 0.3 | 76.46 ± 0.3 | 76.53 ± 0.3 | 76.6 ± 0.3
x1 = 0.00146 | 77.04 ± 0.3 | 76.94 ± 0.3 | 76.92 ± 0.3 | 76.95 ± 0.3 | 76.95 ± 0.3 | 76.93 ± 0.3 | 76.96 ± 0.3
x1 = 0.00175 | 77.35 ± 0.3 | 77.33 ± 0.3 | 77.41 ± 0.3 | 77.35 ± 0.3 | 77.25 ± 0.3 | 77.18 ± 0.3 | 77.19 ± 0.3
x1 = 0.0018 | 77.46 ± 0.3 | 77.42 ± 0.3 | 77.48 ± 0.3 | 77.44 ± 0.3 | 77.35 ± 0.3 | 77.28 ± 0.3 | 77.3 ± 0.3
x1 = 0.00235 | 78.13 ± 0.3 | 78.25 ± 0.3 | 78.2 ± 0.3 | 78.06 ± 0.3 | 77.88 ± 0.3 | 77.81 ± 0.3 | 77.83 ± 0.3
x1 = 0.00281 | 78.98 ± 0.31 | 78.99 ± 0.31 | 78.74 ± 0.31 | 78.45 ± 0.3 | 78.27 ± 0.3 | 78.21 ± 0.3 | 78.27 ± 0.3
x1 = 0.00324 | 79.99 ± 0.31 | 79.7 ± 0.31 | 79.24 ± 0.31 | 78.86 ± 0.31 | 78.68 ± 0.3 | 78.63 ± 0.3 | 78.61 ± 0.3
x1 = 0.00357 | 80.51 ± 0.31 | 80.06 ± 0.31 | 79.53 ± 0.31 | 79.18 ± 0.31 | 78.99 ± 0.31 | 78.93 ± 0.31 | 78.99 ± 0.31
x1 = 0.00398 | 81 ± 0.31 | 80.46 ± 0.31 | 79.78 ± 0.31 | 79.43 ± 0.31 | 79.29 ± 0.31 | 79.25 ± 0.31 | 79.27 ± 0.31
x1 = 0.00473 | 81.76 ± 0.32 | 81.26 ± 0.32 | 80.57 ± 0.31 | 80.19 ± 0.31 | 80.01 ± 0.31 | 79.95 ± 0.31 | 79.97 ± 0.31
x1 = 0.00503 | 82.06 ± 0.32 | 81.55 ± 0.32 | 80.85 ± 0.31 | 80.47 ± 0.31 | 80.3 ± 0.31 | 80.24 ± 0.31 | 80.25 ± 0.31
x1 = 0.00543 | 82.41 ± 0.32 | 81.91 ± 0.32 | 81.22 ± 0.31 | 80.85 ± 0.31 | 80.67 ± 0.31 | 80.61 ± 0.31 | 80.57 ± 0.31
x1 = 0.00585 | 82.79 ± 0.32 | 82.27 ± 0.32 | 81.58 ± 0.32 | 81.22 ± 0.31 | 81.05 ± 0.31 | 80.99 ± 0.31 | 81.01 ± 0.31
x1 = 0.0063 | 83.1 ± 0.32 | 82.58 ± 0.32 | 81.9 ± 0.32 | 81.54 ± 0.31 | 81.37 ± 0.31 | 81.31 ± 0.31 | 81.32 ± 0.31
x1 = 0.0069 | 83.54 ± 0.32 | 83.03 ± 0.32 | 82.38 ± 0.32 | 82.04 ± 0.32 | 81.89 ± 0.32 | 81.82 ± 0.32 | 81.83 ± 0.32
x1 = 0.00752 | 84.02 ± 0.32 | 83.53 ± 0.32 | 82.92 ± 0.32 | 82.62 ± 0.32 | 82.49 ± 0.32 | 82.43 ± 0.32 | 82.46 ± 0.32
x1 = 0.00819 | 84.48 ± 0.33 | 84.03 ± 0.33 | 83.46 ± 0.32 | 83.18 ± 0.32 | 83.06 ± 0.32 | 83.02 ± 0.32 | 83.06 ± 0.32
x1 = 0.00886 | 85 ± 0.33 | 84.56 ± 0.33 | 84.02 ± 0.33 | 83.75 ± 0.33 | 83.64 ± 0.32 | 83.61 ± 0.32 | 83.65 ± 0.32
x1 = 0.00969 | 85.51 ± 0.33 | 85.11 ± 0.33 | 84.64 ± 0.33 | 84.42 ± 0.33 | 84.35 ± 0.33 | 84.37 ± 0.33 | 84.46 ± 0.33
x1 = 0.0118 | 87.08 ± 0.34 | 86.76 ± 0.34 | 86.37 ± 0.33 | 86.21 ± 0.33 | 86.16 ± 0.33 | 86.19 ± 0.33 | 86.22 ± 0.33
x1 = 0.01312 | 88 ± 0.34 | 87.75 ± 0.34 | 87.46 ± 0.34 | 87.33 ± 0.34 | 87.3 ± 0.34 | 87.32 ± 0.34 | 87.37 ± 0.34
x1 = 0.01647 | 90.68 ± 0.35 | 90.57 ± 0.35 | 90.49 ± 0.35 | 90.48 ± 0.35 | 90.51 ± 0.35 | 90.58 ± 0.35 | 90.44 ± 0.35
x1 = 0.01786 | 91.44 ± 0.35 | 91.39 ± 0.35 | 91.36 ± 0.35 | 91.4 ± 0.35 | 91.49 ± 0.35 | 91.6 ± 0.35 | 91.72 ± 0.35
x1 = 0.01996 | 92.94 ± 0.36 | 92.97 ± 0.36 | 93.07 ± 0.36 | 93.17 ± 0.36 | 93.26 ± 0.36 | 93.31 ± 0.36 | 93.32 ± 0.36
x1 = 0.02247 | 94.73 ± 0.37 | 94.84 ± 0.37 | 95.04 ± 0.37 | 95.24 ± 0.37 | 95.42 ± 0.37 | 95.55 ± 0.37 | 95.59 ± 0.37
x1 = 0.02729 | 98.3 ± 0.38 | 98.56 ± 0.38 | 99 ± 0.38 | 99.32 ± 0.38 | 99.54 ± 0.38 | 99.68 ± 0.39 | 99.81 ± 0.39
x1 = 0.0303 | 100.51 ± 0.39 | 100.88 ± 0.39 | 101.48 ± 0.39 | 101.9 ± 0.4 | 102.19 ± 0.4 | 102.38 ± 0.4 | 102.52 ± 0.4
x1 = 0.03518 | 103.98 ± 0.4 | 104.48 ± 0.41 | 105.27 ± 0.41 | 105.84 ± 0.41 | 106.24 ± 0.41 | 106.51 ± 0.41 | 106.68 ± 0.41
x1 = 0.0397 | 107.24 ± 0.42 | 107.83 ± 0.42 | 108.77 ± 0.42 | 109.44 ± 0.42 | 109.93 ± 0.42 | 110.24 ± 0.43 | 110.48 ± 0.43
x1 = 0.04518 | 111.01 ± 0.43 | 111.69 ± 0.43 | 112.79 ± 0.44 | 113.6 ± 0.44 | 114.17 ± 0.44 | 114.53 ± 0.44 | 114.82 ± 0.44
x1 = 0.05201 | 115.67 ± 0.45 | 116.48 ± 0.45 | 117.75 ± 0.46 | 118.68 ± 0.46 | 119.37 ± 0.46 | 119.87 ± 0.46 | 120.21 ± 0.47
x1 = 0.06018 | 121.38 ± 0.47 | 122.34 ± 0.47 | 123.83 ± 0.48 | 124.98 ± 0.48 | 125.84 ± 0.49 | 126.57 ± 0.49 | 126.88 ± 0.49
x1 = 0.07563 | 131.77 ± 0.51 | 132.81 ± 0.51 | 134.56 ± 0.52 | 135.97 ± 0.53 | 137.1 ± 0.53 | 137.96 ± 0.53 | 138.56 ± 0.54
x1 = 0.09777 | 146.15 ± 0.56 | 147.28 ± 0.57 | 149.31 ± 0.58 | 151.06 ± 0.58 | 152.51 ± 0.59 | 153.69 ± 0.6 | 154.59 ± 0.6
x1 = 0.1356 | 170.77 ± 0.66 | 171.98 ± 0.66 | 174.29 ± 0.68 | 176.42 ± 0.68 | 178.34 ± 0.69 | 180.03 ± 0.7 | 181.46 ± 0.71
x1 = 0.1978 | 210.08 ± 0.81 | 211.39 ± 0.82 | 213.91 ± 0.83 | 216.46 ± 0.84 | 218.95 ± 0.84 | 221.31 ± 0.86 | 223.41 ± 0.87
x1 = 0.3066 | 278.42 ± 1.1 | 279.68 ± 1.1 | 282.35 ± 1.1 | 285.3 ± 1.1 | 288.41 ± 1.1 | 291.49 ± 1.1 | 294.37 ± 1.1
x1 = 0.6924 | 513.75 ± 2 | 515.35 ± 2 | 519.97 ± 2 | 524.59 ± 2 | 529.47 ± 2.1 | 534.66 ± 2.1 | 538.64 ± 2.1
x1 = 1 | 686.95 ± 2.7 | 689.21 ± 2.7 | 693.95 ± 2.7 | 698.98 ± 2.7 | 704.91 ± 2.7 | 711.23 ± 2.7 | 716.97 ± 2.8

O [water] + CCCCCCOCCOCCOCCOCCOCCO
x2 = 0
Settings | molar heat capacity at constant pressure [J/K/mol]
283 K | 75.53 ± 0.29
288 K | 75.41 ± 0.29
298 K | 75.3 ± 0.29
308 K | 75.28 ± 0.29
318 K | 75.3 ± 0.29
328 K | 75.35 ± 0.29
338 K | 75.43 ± 0.29
